Data taken from the NIST ThermoML archive (doi:10.1021/je300652k).

Conditions: Liquid, Pulse-echo method

FC(F)(F)C1(F)OC1(F)F (stereo unspecified) [2,2,3-trifluoro-3-(trifluoromethyl)oxirane]
Conditions	speed of sound [m/s]
253.15 K, 2510 kPa	571.2
253.15 K, 10040 kPa	623.9
253.15 K, 25020 kPa	708
253.15 K, 50030 kPa	816.7
253.15 K, 75010 kPa	903.6
253.15 K, 100040 kPa	977.8
253.15 K, 125040 kPa	1043.1
253.15 K, 150010 kPa	1101.9
253.15 K, 175030 kPa	1155.8
253.15 K, 200030 kPa	1205.6
253.15 K, 250060 kPa	1295.5
253.15 K, 300100 kPa	1376.5
253.15 K, 350000 kPa	1449.2
253.15 K, 400120 kPa	1516.7
283.15 K, 2500 kPa	449.4
283.15 K, 9990 kPa	517.5
283.15 K, 25000 kPa	617.4
283.15 K, 49990 kPa	737.8
283.15 K, 74990 kPa	831.4
283.15 K, 100050 kPa	910
283.15 K, 125050 kPa	978.4
283.15 K, 150010 kPa	1039.3
283.15 K, 175090 kPa	1095.2
283.15 K, 200080 kPa	1146.8
283.15 K, 250010 kPa	1239.4
283.15 K, 300020 kPa	1321.5
283.15 K, 350020 kPa	1396.5
283.15 K, 400120 kPa	1465.2
313.15 K, 2500 kPa	326.6
313.15 K, 10010 kPa	420.6
313.15 K, 25030 kPa	538.8
313.15 K, 50010 kPa	670.9
313.15 K, 75040 kPa	769.9
313.15 K, 100050 kPa	852
313.15 K, 125040 kPa	922.8
313.15 K, 150070 kPa	986.2
313.15 K, 175020 kPa	1043.4
313.15 K, 200020 kPa	1095.8
313.15 K, 250020 kPa	1190.7
313.15 K, 300010 kPa	1274.7
313.15 K, 350030 kPa	1350.5
313.15 K, 400060 kPa	1420.2
343.15 K, 10040 kPa	332.6
343.15 K, 25050 kPa	471.3
343.15 K, 50030 kPa	614.1
343.15 K, 75030 kPa	718
343.15 K, 100050 kPa	803
343.15 K, 125030 kPa	875.8
343.15 K, 150030 kPa	940.5
343.15 K, 175010 kPa	999.1
343.15 K, 200060 kPa	1052.9
343.15 K, 250050 kPa	1149.1
343.15 K, 299960 kPa	1234.4
343.15 K, 350090 kPa	1311.5
343.15 K, 400040 kPa	1382.2
373.15 K, 10010 kPa	255
373.15 K, 24970 kPa	413.4
373.15 K, 50060 kPa	565.5
373.15 K, 75000 kPa	673
373.15 K, 100040 kPa	760
373.15 K, 125040 kPa	834.6
373.15 K, 150040 kPa	900.3
373.15 K, 175000 kPa	959.8
373.15 K, 200070 kPa	1014.2
373.15 K, 249990 kPa	1111.6
373.15 K, 300030 kPa	1198
373.15 K, 350040 kPa	1275.4
373.15 K, 400010 kPa	1346.4
403.15 K, 20010 kPa	322.5
403.15 K, 25020 kPa	367.5
403.15 K, 50020 kPa	525.9
403.15 K, 75050 kPa	636.7
403.15 K, 100040 kPa	725.7
403.15 K, 125010 kPa	801.5
403.15 K, 150040 kPa	868.4
403.15 K, 175040 kPa	928.7
403.15 K, 200050 kPa	983.8
403.15 K, 250040 kPa	1082.6
403.15 K, 299980 kPa	1169.6
403.15 K, 350040 kPa	1247.9
403.15 K, 399990 kPa	1319.9
